Consider eleven compounds from patent publication US9499550B2 (BRISTOL-MYERS SQUIBB COMPANY, priority 2012, dated 2016).

Read-outs that look alike come from different tables or passages of the source.

By EC50 is commonly meant the midpoint of the concentration-response curve.

Experiment [1] has as its system HCV genotype 1a (H77 strain) replicon in HUH-7 cells. Description: HCV replicon luciferase reporter assay, genotype 1a. It is filed as cell-based. To be noted: Hepatitis C virus, Huh-7, 72 h, HCV genotype 1a replicon luciferase, 3 days incubation. In short, it runs like this: (§1)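 Replicon inhibition for both genotypes was measured as Renilla luciferase signal (EnduRen, 7.5 μM final, 2 h) after 3-day, 37° C exposure of replicon-bearing HUH-7 cells in 4% FCS DMEM, 0.5% DMSO. The 1b construct carries S1179I; the 1a H77 construct carries P1496L and S2204I. Twenty-point, 3-fold dilutions were fitted four-parametrically for EC50, and CC50 was taken from multiplexed Cell Titer-Blue.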
Background: Replicon systems follow genome replication, usually without infectious particles.

The subject of experiment [2] is HCV genotype 1b (Con1) replicon in HUH-7 cells. Briefly: HCV replicon luciferase reporter assay, genotype 1b. It is filed as cell-based. The conditions noted are these: Hepatitis C virus, Huh-7, 72 h, HCV genotype 1b replicon luciferase, 3 days incubation. In short, it runs like this:
as §1

For the compound `COc1ccc2c(O[C@@H]3C[C@H]4C(=O)N[C@]5(C(=O)NS(=O)(=O)C6CC6)C[C@H]5/C=C\CC[C@@H](C)C[C@@H](C)[C@H](NC(=O)OC(C)(C)C(C)(F)F)C(=O)N4C3)nc(-c3ccc4c(c3)OCCO4)cc2c1` [Compound 5241, 3,3-difluoro-2-methylbutan-2-yl((2R,6S,7R,9R,13aS,14aR,16aS,Z)-14a-((cyclopropylsulfonyl)carbamoyl)-2-((3-(2,3-dihydrobenzo[b][1,4]dioxin-6-yl)-6-methoxyisoquinolin-1-yl)oxy)-7,9-dimethyl-5,16-dioxo-1,2,3,5,6,7,8,9,10,11,13a,14,14a,15,16,16a-hexadecahydrocyclopropa[e]pyrrolo[1,2-a][1,4]diazacyclopentadecin-6-yl)carbamate], the 50% effective concentration (EC50) in experiment [1] (read-out: LE_1a (EC50, range)) was less than 5.46 nM; in experiment [2] (read-out: LE_1b (EC50, range)), less than 5.46 nM.
Regarding `COc1ccc2c(O[C@@H]3C[C@H]4C(=O)N[C@]5(C(=O)NS(=O)(=O)C6CC6)C[C@H]5/C=C\CC[C@@H](C)C[C@@H](C)[C@H](NC(=O)OC(C)(C)C(F)(F)F)C(=O)N4C3)nc(-c3ccc4c(c3)OCCO4)cc2c1` [Compound 5243, 1,1,1-trifluoro-2-methylpropan-2-yl((2R,6S,7R,9R,13aS,14aR,16aS,Z)-14a-((cyclopropylsulfonyl)carbamoyl)-2-((3-(2,3-dihydrobenzo[b][1,4]dioxin-6-yl)-6-methoxyisoquinolin-1-yl)oxy)-7,9-dimethyl-5,16-dioxo-1,2,3,5,6,7,8,9,10,11,13a,14,14a,15,16,16a-hexadecahydrocyclopropa[e]pyrrolo[1,2-a][1,4]diazacyclopentadecin-6-yl)carbamate], the half-maximal effective concentration (EC50) is less than 5.46 nM in experiment [1] (read-out: LE_1a (EC50, range)) and less than 5.46 nM in experiment [2] (read-out: LE_1b (EC50, range)).
Regarding `C[C@H]1CC/C=C\[C@@H]2C[C@@]2(C(=O)NS(=O)(=O)C2(C)CC2)NC(=O)[C@@H]2C[C@@H](Oc3nccc4c5c(ccc34)OCCO5)CN2C(=O)[C@@H](NC(=O)OC(C)(C)C)[C@H](C)C1` [Compound 5244, tert-butyl ((2R,6S,7R,9S,13aS,14aR,16aS,Z)-2-((2,3-dihydro-[1,4]dioxino[2,3-f]isoquinolin-7-yl)oxy)-7,9-dimethyl-14a-(((1-methylcyclopropyl)sulfonyl)carbamoyl)-5,16-dioxo-1,2,3,5,6,7,8,9,10,11,13a,14,14a,15,16,16a-hexadecahydrocyclopropa[e]pyrrolo[1,2-a][1,4]diazacyclopentadecin-6-yl)carbamate], the EC50 in experiment [1] (read-out: LE_1a (EC50, range)) was in the range of 4.82 to 103 nM; in experiment [2] (read-out: LE_1b (EC50, range)) it was 4.82 to 103 nM.
Consider `C[C@@H]1CC/C=C\[C@@H]2C[C@@]2(C(=O)NS(=O)(=O)C2(C)CC2)NC(=O)[C@@H]2C[C@@H](Oc3nccc4c5c(ccc34)OCCO5)CN2C(=O)[C@@H](NC(=O)OC(C)(C)C)[C@H](C)C1` [Compound 5245, tert-butyl ((2R,6S,7R,9R,13aS,14aR,16aS,Z)-2-((2,3-dihydro-[1,4]dioxino[2,3-f]isoquinolin-7-yl)oxy)-7,9-dimethyl-14a-(((1-methylcyclopropyl)sulfonyl)carbamoyl)-5,16-dioxo-1,2,3,5,6,7,8,9,10,11,13a,14,14a,15,16,16a-hexadecahydrocyclopropa[e]pyrrolo[1,2-a][1,4]diazacyclopentadecin-6-yl)carbamate], for which the EC50 in experiment [1] (read-out: LE_1a (EC50, range)) was less than 5.46 nM; in experiment [2] (read-out: LE_1b (EC50, range)), less than 5.46 nM.
In the case of `C[C@H]1CC/C=C\[C@@H]2C[C@@]2(C(=O)NS(=O)(=O)C2(C)CC2)NC(=O)[C@@H]2C[C@@H](Oc3nccc4c5c(ccc34)OCCO5)CN2C(=O)[C@@H](NC(=O)OC(C)(C)C(F)(F)F)[C@H](C)C1` [Compound 5246, 1,1,1-trifluoro-2-methylpropan-2-yl((2R,6S,7R,9S,13aS,14aR,16aS,Z)-2-((2,3-dihydro-[1,4]dioxino[2,3-f]isoquinolin-7-yl)oxy)-7,9-dimethyl-14a-(((1-methylcyclopropyl)sulfonyl)carbamoyl)-5,16-dioxo-1,2,3,5,6,7,8,9,10,11,13a,14,14a,15,16,16a-hexadecahydrocyclopropa[e]pyrrolo[1,2-a][1,4]diazacyclopentadecin-6-yl)carbamate], the EC50 is 4.82 to 103 nM in experiment [1] (read-out: LE_1a (EC50, range)) and 4.82 to 103 nM in experiment [2] (read-out: LE_1b (EC50, range)).
With `C[C@@H]1CC/C=C\[C@@H]2C[C@@]2(C(=O)NS(=O)(=O)C2(C)CC2)NC(=O)[C@@H]2C[C@@H](Oc3nccc4c5c(ccc34)OCCO5)CN2C(=O)[C@@H](NC(=O)OC(C)(C)C(F)(F)F)[C@H](C)C1` [Compound 5247, 1,1,1-trifluoro-2-methylpropan-2-yl((2R,6S,7R,9R,13aS,14aR,16aS,Z)-2-((2,3-dihydro-[1,4]dioxino[2,3-f]isoquinolin-7-yl)oxy)-7,9-dimethyl-14a-(((1-methylcyclopropyl)sulfonyl)carbamoyl)-5,16-dioxo-1,2,3,5,6,7,8,9,10,11,13a,14,14a,15,16,16a-hexadecahydrocyclopropa[e]pyrrolo[1,2-a][1,4]diazacyclopentadecin-6-yl)carbamate], the concentration for a half-maximal effect (EC50) was less than 5.46 nM in experiment [1] (read-out: LE_1a (EC50, range)) and less than 5.46 nM in experiment [2] (read-out: LE_1b (EC50, range)).
In the case of `C[C@H]1CC/C=C\[C@@H]2C[C@@]2(C(=O)NS(=O)(=O)C2(C)CC2)NC(=O)[C@@H]2C[C@@H](Oc3nccc4c5c(ccc34)OCCO5)CN2C(=O)[C@@H](NC(=O)O[C@@H]2C[C@@H]3C[C@@H]3C2)[C@H](C)C1` [Compound 5248, (1R,3r,5 S)-bicyclo[3.1.0]hexan-3-yl((2R,6S,7R,9S,13aS,14aR,16aS,Z)-2-((2,3-dihydro-[1,4]dioxino[2,3-f]isoquinolin-7-yl)oxy)-7,9-dimethyl-14a-(((1-methylcyclopropyl)sulfonyl)carbamoyl)-5,16-dioxo-1,2,3,5,6,7,8,9,10,11,13a,14,14a,15,16,16a-hexadecahydrocyclopropa[e]pyrrolo[1,2-a][1,4]diazacyclopentadecin-6-yl)carbamate], the EC50 in experiment [1] (read-out: LE_1a (EC50, range)) is 4.82 to 103 nM; in experiment [2] (read-out: LE_1b (EC50, range)) it was less than 5.46 nM.
Taken in the same sequence, the figures for `C[C@@H]1CC/C=C\[C@@H]2C[C@@]2(C(=O)NS(=O)(=O)C2(C)CC2)NC(=O)[C@@H]2C[C@@H](Oc3nccc4c5c(ccc34)OCCO5)CN2C(=O)[C@@H](NC(=O)O[C@@H]2C[C@@H]3C[C@@H]3C2)[C@H](C)C1` [Compound 5249, (1R,3r,5 S)-bicyclo[3.1.0]hexan-3-yl((2R,6S,7R,9R,13aS,14aR,16aS,Z)-2-((2,3-dihydro-[1,4]dioxino[2,3-f]isoquinolin-7-yl)oxy)-7,9-dimethyl-14a-(((1-methylcyclopropyl)sulfonyl)carbamoyl)-5,16-dioxo-1,2,3,5,6,7,8,9,10,11,13a,14,14a,15,16,16a-hexadecahydrocyclopropa[e]pyrrolo[1,2-a][1,4]diazacyclopentadecin-6-yl)carbamate] were less than 5.46 nM and less than 5.46 nM.
For the compound `C[C@H]1CC/C=C\[C@@H]2C[C@@]2(C(=O)NS(=O)(=O)C2(C)CC2)NC(=O)[C@@H]2C[C@@H](Oc3nccc4c5c(ccc34)OCCO5)CN2C(=O)[C@@H](NC(=O)OCC2(C)CC2)[C@H](C)C1` [Compound 5250, (1-methylcyclopropyl)methyl ((2R,6S,7R,9S,13aS,14aR,16aS,Z)-2-((2,3-dihydro-[1,4]dioxino[2,3-f]isoquinolin-7-yl)oxy)-7,9-dimethyl-14a-(((1-methylcyclopropyl)sulfonyl)carbamoyl)-5,16-dioxo-1,2,3,5,6,7,8,9,10,11,13a,14,14a,15,16,16a-hexadecahydrocyclopropa[e]pyrrolo[1,2-a][1,4]diazacyclopentadecin-6-yl)carbamate], the EC50 was 22.6 nM in experiment [1] (read-out: LE_1a (EC50)); 4.82 to 103 nM in experiment [1] (read-out: LE_1a (EC50, range)); 5.5 nM in experiment [2] (read-out: LE_1b (EC50)); 4.82 to 103 nM in experiment [2] (read-out: LE_1b (EC50, range)).
On to `C[C@@H]1CC/C=C\[C@@H]2C[C@@]2(C(=O)NS(=O)(=O)C2(C)CC2)NC(=O)[C@@H]2C[C@@H](Oc3nccc4c5c(ccc34)OCCO5)CN2C(=O)[C@@H](NC(=O)OCC2(C)CC2)[C@H](C)C1` [Compound 5251, (1-methylcyclopropyl)methyl ((2R,6S,7R,9R,13aS,14aR,16aS,Z)-2-((2,3-dihydro-[1,4]dioxino[2,3-f]isoquinolin-7-yl)oxy)-7,9-dimethyl-14a-(((1-methylcyclopropyl)sulfonyl)carbamoyl)-5,16-dioxo-1,2,3,5,6,7,8,9,10,11,13a,14,14a,15,16,16a-hexadecahydrocyclopropa[e]pyrrolo[1,2-a][1,4]diazacyclopentadecin-6-yl)carbamate], for which the 50% effective concentration (EC50) in experiment [1] (read-out: LE_1a (EC50, range)) was less than 5.46 nM; in experiment [2] (read-out: LE_1b (EC50, range)) it was less than 5.46 nM.
On to `C[C@H]1CC/C=C\[C@@H]2C[C@@]2(C(=O)NS(=O)(=O)C2(C)CC2)NC(=O)[C@@H]2C[C@@H](Oc3nccc4c5c(ccc34)OCCO5)CN2C(=O)[C@@H](NC(=O)O[C@H](C)C(F)(F)F)[C@H](C)C1` [Compound 5252, (R)-1,1,1-trifluoropropan-2-yl ((2R,6S,7R,9S,13aS,14aR,16aS,Z)-2-((2,3-dihydro-[1,4]dioxino[2,3-f]isoquinolin-7-yl)oxy)-7,9-dimethyl-14a-(((1-methylcyclopropyl)sulfonyl)carbamoyl)-5,16-dioxo-1,2,3,5,6,7,8,9,10,11,13a,14,14a,15,16,16a-hexadecahydrocyclopropa[e]pyrrolo[1,2-a][1,4]diazacyclopentadecin-6-yl)carbamate], for which the EC50 is 15.1 nM in experiment [1] (read-out: LE_1a (EC50)); 4.82 to 103 nM in experiment [1] (read-out: LE_1a (EC50, range)); 4.04 nM in experiment [2] (read-out: LE_1b (EC50)); less than 5.46 nM in experiment [2] (read-out: LE_1b (EC50, range)).
